Several values for one entry are separate records, joined by “and”; a condition that tells them apart may be missing. Equal entries are not always repeated. Where two headings read alike, the source gives them in different places.
Experiments:
[1] = Example 3: intestinal health scores based on Tierlynck et al. 2011 (dysbacteriosis, gross gut pathology); assay type: in vivo, commercial meat chickens; settings: for Ballooning (total gut) score / Contents lower intestine score / Contents upper intestine score / Hyperaemia lower intestine score / Hyperaemia upper intestine score / Tonus lower intestine score / Tonus upper intestine score / Total Intestine health score (maximum 10) / Translucency lower intestine score / Translucency upper intestine score / Undigested particles in rectum score: reference feed: Salino, or Sal Zn Bac
Description: […] General gut quality (looking for enteritis) was also visually assessed at that point.
This is a scoring system aimed at quantifying the level of dysbacteriosis present in a group of birds, attributing scores for certain grossly visible abnormalities. Higher total scores (maximum 10) reflect a higher level of dysbacteriosis, although this may be compromised if coccidiosis is present. For our purposes, the intestinal scores simply reflect gross gut pathology.

Eimeria species = system: Eimeria species; design: species or system commercial meat chickens; settings: in vivo
[2] = in vivo
[3] = system: Clostridium Perfringens (type A strain EHE-NE36)
[4] = General safety in broilers reared to market weight by histology (Example 8); assay type: in vivo, broiler chickens; settings: histology D42
Description: This study evaluates the safety of IRP001 chloride in broilers through examination of histology.
The objective of this study was to test the general safety of IRP001 chloride in broilers reared to market weight by examination of histology.
The experiment consisted of the following treatments (1 pen per treatment, Table 54).
Birds were kept in a pen having an area of 4×10=40 ft^2, with clean wood shavings as bedding with a thickness of approximately 4 inches. The pen had 5 feet high side walls with a bottom 1 ½ feet being of solid wood to prevent bird migration.
The temperature of the building was monitored. Environmental conditions during the trial (temperature) were appropriate (optimum) to the age of the animals. Illumination was provided by fluorescent bulbs placed above the pens. The diets were provided ad libitum in one tube-type feeder per pen. From D0 until D7, feed was also supplied on a tray placed on the litter of each pen. Water was provided ad libitum from one Plasson drinker per pen.
Standard floor pen management practices were used throughout the experiment. Animals and housing facilities were inspected twice daily, observing and recording the general health status, constant feed and water supply as well as temperature, removing all dead birds, and recognizing unexpected events. Birds found dead during the study were noted on the Daily Mortality Record, and were not replaced. Pen number, the date of mortality, sex, weight, and diagnosis were recorded.
Day of hatch male Cobb chicks were obtained and ten male broiler chicks were placed in each pen. Accountabilities of all test animals and any extra birds were recorded on animal disposition form. The birds were sexed at the hatchery. The breeder flock history and vaccination record at the hatchery were recorded. Bird weights by pen were recorded on D0 and 42.
All weights were by pen. Treatment Starter feed was fed from D0 to 21. On D21, non-consumed Starter was weighed by pen and discarded. Grower feed was issued and fed until D35. On D35, non-consumed Grower was weighed by pen and discarded. Finisher feed was fed until D42. On D42, non-consumed Finisher was weighed by pen and discarded.
On the day of study completion (D42), five birds from each pen were humanly euthanized and upper, mid and lower gut sections plus liver lobe were collected and stored in neutral buffered formalin. Theses samples were shipped for analysis.

[5] = NE challenge, IVP 0.1 g/L In-water, Groups 7, 8
[6] = NE challenge, IVP 0.2 g/kg In-feed, Group 11
[7] = NE challenge, IVP 1.0 g/L In-water, Groups 9, 10
[8] = NE challenge, IVP 2.0 g/kg In-feed, Group 12
[9] = Necrotic Enteritis, IVP water 1.0 g/L, line 'Mean' of Groups 9 and 10
[10] = Necrotic Enteritis, IVP water 1.0 g/L, per isolator, Groups 9 and 10
[11] = Nil Challenge, IVP water 1.0 g/L, line 'Mean' of Groups 3 and 4
[12] = Nil Challenge, IVP water 1.0 g/L, per isolator, Groups 3 and 4
[13] = Nil challenge, IVP 1.0 g/L In-water, Groups 3, 4
[14] = broilers in a production environment

In the case of CC[C@@H](C(=O)[C@@H](C)[C@@H](O)[C@H](C)[C@@H]1O[C@@H]([C@@H](CC)C(=O)O)CC[C@@H]1C)[C@H]1O[C@]2(C=C[C@@H](O)[C@]3(CC[C@@](C)([C@H]4CC[C@](O)(CC)[C@H](C)O4)O3)O2)[C@H](C)C[C@@H]1C [salinomycin, Salinomycin], the “Ballooning (total gut) score” value ([1]; Age 21 days) was 0.10, the “Contents lower intestine score” value ([1]; Age 21 days) was 0.45 and the “Contents upper intestine score” value ([1]; Age 21 days) was 0.65. For the same molecule, the “Hyperaemia lower intestine score” value ([1]; Age 21 days) was 0.00, the “Hyperaemia upper intestine score” value ([1]; Age 21 days) was 0.15 and the “Tonus lower intestine score” value ([1]; Age 21 days) was 0.50. The “Tonus upper intestine score” value ([1]; Age 21 days) was 0.50, the “Total Intestine health score (maximum 10)” value ([1]; Age 21 days) was 3.55 and the “Translucency lower intestine score” value ([1]; Age 21 days) was 0.85. For the same molecule, the “Translucency upper intestine score” value ([1]; Age 21 days) was 0.20^B, the “Undigested particles in rectum score” value ([1]; Age 21 days) was 0.15^B and the “Ballooning (total gut) score” value ([1]; Age 28 days) was 0.80. For the same molecule, the “Contents lower intestine score” value ([1]; Age 28 days) was 0.00, the “Contents upper intestine score” value ([1]; Age 28 days) was 1.00 and the “Hyperaemia lower intestine score” value ([1]; Age 28 days) was 0.20. The “Hyperaemia upper intestine score” value ([1]; Age 28 days) was 0.80, the “Tonus lower intestine score” value ([1]; Age 28 days) was 0.60 and the “Tonus upper intestine score” value ([1]; Age 28 days) was 0.80. The “Total Intestine health score (maximum 10)” value ([1]; Age 28 days) was 5.20, the “Translucency lower intestine score” value ([1]; Age 28 days) was 0.20 and the “Translucency upper intestine score” value ([1]; Age 28 days) was 0.40. The “Undigested particles in rectum score” value ([1]; Age 28 days) was 0.40, the “Faecal oocyst count, Log10 Mean” value (Eimeria species) was 4.72^B Log10 (Oocyst/g faeces) and the “Faecal oocyst count, Mean” value (Eimeria species) was 72,046 Oocyst/g faeces. The “Feed per bird over period 0-14 days” value [2] was 497^AB g/bird, the “Feed per bird over period 0-21 days” value [2] was 1193^B g/bird and the “Feed per bird over period 0-28 days” value [2] was 2074 g/bird. The “Feed per bird over period 0-42 days” value [2] was 4298 g/bird, the “Mean Weight Gain over period 0-7 days” value [2] was 116 gm and the “Mean Weight Gain over period 8-14 days” value [2] was 330^BC gm. The “Mean Weight Gain over period 15-21 days” value [2] was 517^A gm, the “Mean Weight Gain over period 22-28 days” value [2] was 645 gm and the “Mean Weight Gain over period 29-42 days” value [2] was 1384 gm. The “Mean live weight at 0 days” value [2] was 41 gm, the “growth rates throughout the experiment” value [2] was “statistically similar to the control group” and the “mean live weight at 14 days” value [2] was 446^AB gm.
In the case of COc1ccc2cc3[n+](cc2c1OC)CCc1cc2c(cc1-3)OCO2 [IRP001 chloride, berberine chloride], the “translucency score in the upper intestine and undigested feed particles in the rectum” value ([1]; 21 days, higher two levels 0.3 and 0.1 g/kg, compared with controls and 0.03 g/kg) was “reduced translucency score in the upper intestine and the presence of undigested feed particles in the rectum”, the “total intestinal health scores compared with the controls” value ([1]; 28 days, 0.3 g/kg in feed, P=0.06) was “approached significance” and the “coccidiosis lesion scores in duodenum, jejunum and total gut” value (Eimeria species) was “highest lesion scores”. The “oocyst counts in faeces” value (Eimeria species) was “numerically lower than the controls”, the “total gut coccidiosis lesion scores” value (Eimeria species) was “significantly reduced total gut lesion scores” and the “Median Duodenal Lesion Score (0 absent to 4 severe)” value (from here on “Median Duodenal Lesion Score”) [3, 5] was 4. The “Median Ilial Lesion Score (0 absent to 4 severe)” value (shortened to “Median Ilial Lesion Score”) [3, 5] was 4, the “Median Jejunal Lesion Score (0 absent to 4 severe)” value (“Median Jejunal Lesion Score” for short) [3, 5] was 4 and the “Median Duodenal Lesion Score” value [3, 6] was 4. The “Median Ilial Lesion Score” value [3, 6] was 4, the “Median Jejunal Lesion Score” value [3, 6] was 4 and the “Median Duodenal Lesion Score” value [3, 7] was 1. For the same molecule, the “Median Ilial Lesion Score” value [3, 7] was 1, the “Median Jejunal Lesion Score” value [3, 7] was 1 and the “Median Duodenal Lesion Score” value [3, 8] was 1. For the same molecule, the “Median Ilial Lesion Score” value [3, 8] was 1, the “Median Jejunal Lesion Score” value [3, 8] was 1 and the “Mortalities prior to autopsy” value ([3]; Necrotic Enteritis, IVP feed 0.2 g/kg, Group 11) was 9. The “Mortalities prior to autopsy” value ([3]; Necrotic Enteritis, IVP feed 2 g/kg, Group 12) was 2, the “Mortalities prior to autopsy” value ([3]; Necrotic Enteritis, IVP water 0.1 g/L, per isolator, Groups 7 and 8, listed as IVP) was 10 and the “Mortalities prior to autopsy” value [3, 9] was 0. For the same molecule, the Mortality % [3, 9] was 0%, the “Mortalities prior to autopsy” value [3, 10] was 0 and the Mortality % [3, 10] was 0%. For the same molecule, the “Mortalities prior to autopsy” value [3, 11] was 0, the Mortality % [3, 11] was 0% and the “Mortalities prior to autopsy” value [3, 12] was 0. For the same molecule, the Mortality % [3, 12] was 0%, the “Median Duodenal Lesion Score” value [3, 13] was 0 and the “Median Ilial Lesion Score” value [3, 13] was 0. For the same molecule, the “Median Jejunal Lesion Score” value [3, 13] was 0, the “gastrointestinal tract (GIT) histologic lesions” value [4, 14] was “within normal limits” and the liver histologic lesions [4, 14] was “within normal limits”. For the same molecule, the “Cumulative Pathology and Enteritis scores” value ([4]; versus control Treatment 1 Nil group) was “equal or lower than the control”, the “Feed per bird over period 0-14 days” value [2] was 485^B g/bird and 513^A g/bird and 512^A g/bird and the “Feed per bird over period 0-21 days” value [2] was 1186^B g/bird and 1227^AB g/bird and 1240^AB g/bird. The “Feed per bird over period 0-28 days” value [2] was 1957 g/bird and 2037 g/bird and 2049 g/bird, the “Feed per bird over period 0-42 days” value [2] was 4121 g/bird and 4247 g/bird and 4305 g/bird and the “Mean Weight Gain over period 0-7 days” value [2] was 113 gm and 121 gm and 119 gm. The “Mean Weight Gain over period 8-14 days” value [2] was 320^C gm and 334^A gm and 343^A gm, the “Mean Weight Gain over period 15-21 days” value [2] was 491^B gm and 517^A gm and 528^A gm and the “Mean Weight Gain over period 22-28 days” value [2] was 593 gm and 618 gm and 600 gm. For the same molecule, the “Mean Weight Gain over period 29-42 days” value [2] was 1324 gm and 1341 gm and 1436 gm, the “Mean live weight at 0 days” value [2] was 41 gm and the “Mean live weight at 7 days” value [2] was 160 gm. For the same molecule, the “Mean live weight at 21 days” value [2] was 923^C gm, the “growth rates throughout the experiment” value [2] was “statistically similar to the control group” and the “live weight to the end of the experiment (day 42)” value [2] was “remained significantly lighter than all other groups”. For the same molecule, the “mean live weight at 14 days” value [2] was “significantly lower weights than the negative control”.
